The values below come from patent publication US20210369669A1, “AUTOPHAGY ACTIVATORS AND INHIBITORS OF FERROPTOSIS FOR PREVENTING ACUTE RENAL FAILURE AND NEUROTOXCITY INDUCED BY CERTAIN ANTIBIOTICS” (SystaMedic Inc., priority 2018, published 2021).

Data set [1] has as its system cisplatin-induced renal damage. The conditions noted are these: rats; cited from earlier work.
The subject of data set [2] is rat model of acute renal injury (colistin-induced). As to the kind of experiment: Colistin-induced acute renal injury in rats: serum creatinine and urea. Type of data set: in vivo. Here is the method:
Rats were injected I.P. on the left side of the animals with a 30 mg/kg dose of colistin once a day for eight consecutive days.

Another data set concerns mouse N2a neuronal cells. The conditions noted are these: cited from earlier work.
In data set [3] the test system is central and peripheral nerve tissues. The conditions noted are these: colistin 15 mg/kg/day for 7 days in mice; cited from earlier work.
For data set [4] the following is noted: dogs; estimated from oral studies; from U.S. Pat. No. 5,629,337; cited from earlier work.
For data set [5] the following is noted: monkeys; estimated from oral studies; from U.S. Pat. No. 5,629,337; cited from earlier work.
The subject of data set [6] is mouse model of renal injury (colistin-induced). The data set is described as follows: Colistin-induced acute renal injury, mouse model. The conditions noted are these: very low doses of zileuton. Type of data set: in vivo.
Where [7] appears, read: rat serum, day 1 prior to dosing, colistin 30 mg/kg I.P. once a day, zileuton 3 mg/kg I.P., edaravone 15 mg/kg I.P. or atorvastatin 25 mg/kg P.O.
The mark [8] stands for this setting: rat serum, day 4, colistin 30 mg/kg I.P. once a day, zileuton 3 mg/kg I.P., edaravone 15 mg/kg I.P. or atorvastatin 25 mg/kg P.O.
Where [9] appears, read: rat serum, day 8, colistin 30 mg/kg I.P. once a day, zileuton 3 mg/kg I.P., edaravone 15 mg/kg I.P. or atorvastatin 25 mg/kg P.O.

Like-named read-outs stand apart in the source and are kept apart here.

Regarding `CC1=NN(c2ccccc2)C(=O)C1` [edaravone, 5-methyl-2-phenyl-4H-pyrazol-3-one], the “Protection against cisplatin-induced renal damage” value in data set [1] was “protect rats against cisplatin-induced renal damage”.
As to Colistin Sulfate, in data set [2] (setting [7]), the “Mean Creatinine Day 1” value came to 0.44 mg/dL and the “Mean Urea Day 1” value came out at 37 mg/dL. In data set [2] (setting [8]), the “Mean Creatinine Day 4” value came out at 0.71 mg/dL and the “Mean Urea Day 4” value came to 69 mg/dL. In data set [2] (setting [9]), the “Mean Creatinine Day 8” value was found to be 0.96 mg/dL and the “Mean Urea Day 8” value is 85 mg/dL.
Consider `CC(C)c1c(C(=O)Nc2ccccc2)c(-c2ccccc2)c(-c2ccc(F)cc2)n1CC[C@@H](O)C[C@@H](O)CC(=O)O` [atorvastatin], for which the “Effect on colistin-induced elevation of creatinine and urea levels” value in data set [2] (colistin 3 mg/kg/diem over eight days, rats) was “blocks the elevation of creatinine and urea levels”.
`CCN(CC)CCCC(C)Nc1ccnc2cc(Cl)ccc12` (centres unmarked) [chloroquine]: the “Effect on colistin-induced apoptosis” value in the data set with mouse N2a neuronal cells (inhibition of autophagy by chloroquine) was “enhances colistin-induced apoptosis”.
Take colistin: the “Mitochondrial dysfunction in nerve tissues” value in data set [3] is “induced mitochondrial dysfunction in central and peripheral nerve tissues”. Further, the “Apoptosis of neuronal cells” value in the data set on mouse N2a neuronal cells (200 μM colistin for 24 h) was “become apoptotic”.
In the case of `CC(c1cc2ccccc2s1)N(O)C(N)=O` (racemic) [zileuton, (±) 1-[1-(1-benzothiophen-2-yl)ethyl]-1-hydroxyurea], in data set [1], the “Protection against cisplatin-induced renal damage” value is given as “protect rats against cisplatin-induced renal damage”. Besides, the “Inhibition of colistin-induced acute renal injury” value in data set [2] (very low doses of zileuton, rat model) was “potent inhibition”; in data set [6], “potent inhibition”. Also, the “Effect on colistin-induced elevation of creatinine and urea levels” value in data set [2] (zileuton I.P. around 3 mg/kg, colistin 30 mg kg, rat) is “blocks the elevation of creatinine and urea levels”. The elimination half-life in data set [4] is 7 h; in data set [5], 0.333 h.
